The target of this experiment is Pyruvate dehydrogenase kinase 3 (PDK3) (Homo sapiens, UniProt Q15120). Nature of the experiment: intrinsic Trp fluorescence quenching of purified PDK3. The experiment is classed as binding.
Pyruvate dehydrogenase kinase 3 (PDK3), sequence (Q15120 whole entry): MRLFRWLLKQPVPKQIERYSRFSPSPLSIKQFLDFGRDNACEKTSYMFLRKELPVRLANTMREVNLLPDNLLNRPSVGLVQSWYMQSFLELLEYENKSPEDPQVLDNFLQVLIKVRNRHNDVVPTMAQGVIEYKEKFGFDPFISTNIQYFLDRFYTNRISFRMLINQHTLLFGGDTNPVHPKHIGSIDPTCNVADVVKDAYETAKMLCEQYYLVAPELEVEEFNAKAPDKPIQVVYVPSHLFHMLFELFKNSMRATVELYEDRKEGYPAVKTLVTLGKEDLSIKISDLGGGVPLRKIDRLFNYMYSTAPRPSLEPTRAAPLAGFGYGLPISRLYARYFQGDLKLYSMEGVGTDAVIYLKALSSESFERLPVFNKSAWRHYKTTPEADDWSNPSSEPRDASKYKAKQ

As a reminder, the Kd is a measure of binding affinity in units of concentration. Higher therefore signals weaker binding. For `O=c1c(O)c(-c2cc(O)c(O)c(O)c2)oc2cc(O)cc(O)c12` [MT, Myricetin], the Kd was 8.77 µM.

Values taken from publication PMC11238318 (ACS Omega, 2024).
